# Laboratory results as given in US9802992B2, “Cell into which protein, which can serve as polymerization nucleus of protein polymer, or polymer thereof is introduced, and method for production of the cell” (TOKYO ME[…] OF MEDICAL SCIENCE, priority 2005, dated 2017).
# Experiments:
# [1] = system: SH-SY5Y cells into which α-synuclein plasmid and fibrils are introduced (WT+FαS cells); assay: Cell death assay (LDH leakage) in the cellular model of α-synuclein proteinopathy; format: cell-based; conditions: Gossypetin (20 μM), incubated three days; without polyphenol approximately 50% (FIG. 8)
# Description: A cell death assay was performed using cells into which pcDNA3-α-syn vector and α-synuclein fibrils are introduced, and which had been incubated for three days either in the presence or the absence of a fibrillization inhibitor. Gossypetin (20 μM) which is a type of polyphenol was used as the fibrillization inhibitor.
# After incubation for three days, a portion of the cell media in the culture was harvested. The cells from the remaining media were prepared as a Tris-soluble fraction in the same manner as the Tris-soluble fraction described above. A cell death assay was performed on the harvested media and the Tris-soluble fraction using a CYTOTOX 96™ Non-Radioactive Cytotoxicity Assay Kit (Promega). The method was performed in accordance with the explanatory material accompanying the kit.
# A cell death assay was performed on the following three types of cells: untreated cells (none), FαS cells into which only α-synuclein fibril was introduced, and WT+FαS cells into which fibril and α-synuclein plasmid DNA were introduced. After culturing the cells for three days, cell death was evaluated by lactate dehydrogenase (LDH) leakage assay. This assay is based on determining how much LDH originally inside the cell has leaked outside the cell as a result of cell death.
# Gossypetin was added to SH-SY5Y cells into which α-synuclein plasmid and fibrils are introduced, and incubated for three days. […]
# α-synuclein = target: T1, α-synuclein (Homo sapiens, UniProt P37840); assay: Inhibition of fibrillization of α-synuclein in vitro (thioflavin S fluorescence); format: biochemical; conditions: 2 mg/mL α-synuclein, shaking at 37° C., 20 μM Gossypetin, compared with sample without Gossypetin (FIG. 7)
# T1 construct: made in house; host or cells: E. coli BL21(DE3), pRK172 vector
# Description: Gossypetin, a polyphenol compound may be taken as an example of a candidate substance. Gossypetin is a flavonol contained in Gossypium herbaceum LINNE and is polyphenol compound used as a food additive. For example, it is possible to investigate whether Gossypetin inhibits fibrillization of α-synuclein in vitro by incubating α-synuclein in the presence of Gossypetin, adding thioflavin S to the solution after the reaction and measuring the fluorescence intensity. Thioflavin S is a test reagent which emits fluorescence upon binding to a protein which can serve as a polymerization nucleus of a protein polymer, or a protein polymer thereof, which are rich in β-sheet structure and which therefore can be used to determine the presence or absence of a protein which can serve as a polymerization nucleus of a protein polymer, or a protein polymer thereof. In contrast, since α-synuclein fibrils are rich in β-sheet structure, if Gossypetin inhibits fibrillization of α-synuclein, the fluorescence intensity should be lower than samples to which Gossypetin has not been added.
# […] Fluorescence intensity was measured using a Hitachi F4000 spectrophotometer (excitation wavelength 440 nm, fluorescence wavelength 520 nm).
# 2 mg/mL of α-synuclein was incubated with shaking at 37° C. in the presence or absence of 20 μM of Gossypetin. Fibril formation was measured by thioflavin S fluorescence. […]
structure (smiles),measurement,setting,value
O=c1c(O)c(-c2ccc(O)c(O)c2)oc2c(O)c(O)cc(O)c12 [Gossypetin],rate of cell death,[1],conspicuous inhibition
same,thioflavin S fluorescence intensity (fibril formation of α-synuclein),α-synuclein,conspicuous decrease
